One substance from paper PMC4488288, “Inhibition of the Inositol Kinase Itpkb Augments Calcium Signaling in Lymphocytes and Reveals a Novel Strategy to Treat Autoimmune Disease” (PLoS ONE, 2015) can be followed below.

By IC50 is commonly meant the midpoint of a concentration-inhibition curve.

The experiment has as its target T1, Itpkb (inositol trisphosphate 3' kinase B) (Mus musculus, UniProt B2RXC2).
T1 sequence (B2RXC2 1-942): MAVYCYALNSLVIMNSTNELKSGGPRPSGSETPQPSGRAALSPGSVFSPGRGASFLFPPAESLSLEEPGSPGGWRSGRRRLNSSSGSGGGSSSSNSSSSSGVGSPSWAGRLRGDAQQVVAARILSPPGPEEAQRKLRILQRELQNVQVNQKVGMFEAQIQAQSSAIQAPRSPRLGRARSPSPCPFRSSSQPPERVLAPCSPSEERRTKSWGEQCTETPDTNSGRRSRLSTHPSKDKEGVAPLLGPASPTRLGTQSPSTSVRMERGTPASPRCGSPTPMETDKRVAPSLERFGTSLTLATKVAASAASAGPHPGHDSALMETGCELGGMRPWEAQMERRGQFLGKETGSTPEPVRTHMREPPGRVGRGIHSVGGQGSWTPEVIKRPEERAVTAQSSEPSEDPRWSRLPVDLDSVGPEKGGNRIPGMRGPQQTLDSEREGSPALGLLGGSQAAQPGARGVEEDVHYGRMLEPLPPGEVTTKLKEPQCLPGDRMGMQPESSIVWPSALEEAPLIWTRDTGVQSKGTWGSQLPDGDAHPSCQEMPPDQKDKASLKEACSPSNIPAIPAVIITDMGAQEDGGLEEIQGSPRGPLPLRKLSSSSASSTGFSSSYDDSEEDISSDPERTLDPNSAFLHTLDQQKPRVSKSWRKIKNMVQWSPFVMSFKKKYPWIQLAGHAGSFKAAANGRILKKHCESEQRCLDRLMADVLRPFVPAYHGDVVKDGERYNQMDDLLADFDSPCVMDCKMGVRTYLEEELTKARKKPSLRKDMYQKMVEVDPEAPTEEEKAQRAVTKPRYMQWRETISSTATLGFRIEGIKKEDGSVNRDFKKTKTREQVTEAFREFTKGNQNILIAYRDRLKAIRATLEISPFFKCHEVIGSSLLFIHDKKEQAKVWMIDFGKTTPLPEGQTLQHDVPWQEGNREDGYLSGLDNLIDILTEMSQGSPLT
Kind of experiment: Kinase-Glo assay with purified Itpkb ([…] Itpkb, […] ATP, […] IP3). It is filed as biochemical.

Take GNF362: the 50% inhibitory concentration (IC50) stood at 9 nM.
